≈ marks a conversion by molar mass, not a printed value. Peptide text beside a SMILES is read from it.
Columns and labels:
S. epidermidis 12228 = assay type: cell-based, Staphylococcus epidermidis
Experimental: (§1) MICs were determined to evaluate the antimicrobial activities of the peptides. The bacteria were inoculated into Mueller‐Hinton broth (MHB) medium in advance and placed in a shaker at 37°C until the logarithmic growth phase. The optical density value at OD600 of the bacterial suspension was adjusted to 0.4, and then diluted 1000 times with sterile MHB medium. Subsequently, the peptides with concentrations of 0.25–128 μM were prepared using bovine serum albumin (BSA) solution (0.2% BSA and 0.01% acetic acid) as the solvent on a 96‐well plate. Different concentrations of peptides and bacterial liquids were mixed in equal volumes. MHB medium containing bacteria was used as a positive control. MHB medium without bacteria was used as a negative control. Then, the mixture of peptides and bacteria was cultured in an incubator at 37°C for 18–24 h. The optical density of each well was measured at 492 nm using a microplate reader. The lowest drug concentration corresponding to a culture mixture with an optical density of less than 0.1 is the MIC of the peptide. The assay was repeated three times in duplicate.

red blood cells = assay type: cell-based, pig
Experimental: A series of parameters such as charge number, hydrophobicity, sequence length, and amphipathicity can affect the hemolytic activity of peptides against red blood cells. The minimal hemolytic concentration (MHC) refers to the minimum concentration that causes hemolysis of 10 % of red blood cells, and is often used to evaluate the hemolytic activity of the peptides. Except for SFK3, the percentage of hemolysis at 128 μM was below 5% for all peptides. Hemolysis of the erythrocytes occurred after incubation with Triton X‐100, with complete fragmentation of the erythrocytes and a bright red color of the reaction system (Figure 2B,C and Table S5).
The hemolytic activity of the peptide was calculated by measuring the level of […] released from mammalian red blood cell lysis induced by the peptide, [44]. Fresh porcine blood was collected from the jugular vein and washed with PBS three times, and red blood cells were collected. A red blood cell suspension of 10% (v/v) concentration was prepared in 10 mM PBS (pH = 7.4). After mixing with different concentrations of peptides in equal volume, they were incubated at 37°C for 2 h. Red blood cells treated with PBS and 0.1% Triton X‐100 were used as negative and positive controls, respectively. The assay was repeated three times. After the sample was centrifuged, the supernatant was transferred to a new 96‐well plate, and the optical density at 570 nm was measured using a microplate reader. Hemolysis was calculated as follows: Hemolytic activity(%)=ODtest sample−ODnegative control/ODpositive control−ODnegative control×100%

E. coli 25922 = assay type: cell-based, Escherichia coli
Experimental: as §1

E. coli K88 = assay type: cell-based, Escherichia coli; settings: microbroth dilution, MHB, 37°C, 18–24 h, OD492 < 0.1; repeated three times in duplicate
Experimental: as §1

E. coli K99 = assay type: cell-based, Escherichia coli; settings: microbroth dilution, MHB, 37°C, 18–24 h, OD492 < 0.1; repeated three times in duplicate
Experimental: as §1

S. aureus 6538 = assay type: cell-based, Staphylococcus aureus
Experimental: as §1

S. aureus 1882 = assay type: cell-based, Staphylococcus aureus
Experimental: as §1

P. aeruginosa 15442 = assay type: cell-based, Pseudomonas aeruginosa
Experimental: as §1

P. aeruginosa 27853 = assay type: cell-based, Pseudomonas aeruginosa
Experimental: as §1

S. aureus ATCC 6538 = assay: Drug resistance assay, continuous passaging at sub-MIC; assay type: cell-based, Staphylococcus aureus
Experimental: The fold change in the MIC of peptides and […] against S. aureus ATCC 6538 was measured using the continuous passaging method to evaluate the development of drug resistance. The MIC values of the peptide and vancomycin against S. aureus ATCC 6538 were determined according to the above method, and the solutions in the sub‐MIC wells were aspirated and transferred to a fresh MHB medium for the next round of MIC determination. The procedure lasted for 30 days.

Compound | MIC S. epidermidis 12228 (S. epidermidis 12228) [µM] | MHC (red blood cells) | MIC E. coli 25922 (E. coli 25922) [µM] | MIC E. coli K88 (E. coli K88) [µM] | MIC E. coli K99 (E. coli K99) [µM] | MIC S. aureus 6538 (S. aureus 6538) [µM] | MIC S. aureus 1882 (S. aureus 1882) [µM] | MIC P. aeruginosa 15442 (P. aeruginosa 15442) [µM] | MIC P. aeruginosa 27853 (P. aeruginosa 27853) [µM] | Fold increase of MIC compared with the initial value (S. aureus ATCC 6538; Day 9, sub-MIC passaging) [fold] | MIC relative to the initial value (S. aureus ATCC 6538; end of the trial (30 days), sub-MIC passaging) [times]
CC[C@H](C)[C@H](NC(=O)[C@H](CCCNC(=N)N)NC(=O)[C@H](CO)NC(=O)[C@H](CC(C)C)NC(=O)[C@H](Cc1ccccc1)NC(=O)[C@H](Cc1ccccc1)NC(=O)[C@H](Cc1ccccc1)NC(=O)CNC(=O)CNC(=O)CNC(=O)[C@H](CO)NC(=O)[C@H](C)NC(=O)[C@H](CCCNC(=N)N)NC(=O)[C@@H](NC(=O)[C@H](Cc1c[nH]c2ccccc12)NC(=O)[C@H](Cc1ccc(O)cc1)NC(=O)[C@@H](N)CO)C(C)C)C(=O)N[C@@H](Cc1ccccc1)C(N)=O [SF] (H-SYWVRASGGGFFFLSRIF-NH2) | >64 | >128 μM | >64 | >64 | >64 | 16 (≈ 33.5 µg/mL) | 2 (≈ 4.19 µg/mL) | >64 | >64 |  | 
CC[C@H](C)[C@H](NC(=O)[C@H](CCCNC(=N)N)NC(=O)[C@H](CO)NC(=O)[C@H](CC(C)C)NC(=O)[C@H](Cc1ccccc1)NC(=O)[C@H](Cc1ccccc1)NC(=O)[C@H](Cc1ccccc1)NC(=O)CNC(=O)CNC(=O)CNC(=O)[C@H](CO)NC(=O)[C@H](C)NC(=O)[C@H](CCCNC(=N)N)NC(=O)[C@@H](NC(=O)[C@H](Cc1c[nH]c2ccccc12)NC(=O)[C@H](Cc1ccc(O)cc1)NC(=O)[C@@H](N)CO)C(C)C)C(=O)N[C@@H](Cc1ccccc1)C(=O)N[C@@H](CCCCN)C(N)=O [SFK] (H-SYWVRASGGGFFFLSRIFK-NH2) | >64 | >128 μM | >64 | 32 (≈ 71.2 µg/mL) | 64 (≈ 142 µg/mL) | 4 (≈ 8.9 µg/mL) | 2 (≈ 4.45 µg/mL) | >64 | >64 |  | 
CC[C@H](C)[C@H](NC(=O)[C@H](CCCNC(=N)N)NC(=O)[C@H](CO)NC(=O)[C@H](CC(C)C)NC(=O)[C@H](Cc1ccccc1)NC(=O)[C@H](Cc1ccccc1)NC(=O)[C@H](Cc1ccccc1)NC(=O)CNC(=O)CNC(=O)CNC(=O)[C@H](CO)NC(=O)[C@H](C)NC(=O)[C@H](CCCNC(=N)N)NC(=O)[C@@H](NC(=O)[C@H](Cc1c[nH]c2ccccc12)NC(=O)[C@H](Cc1ccc(O)cc1)NC(=O)[C@@H](N)CO)C(C)C)C(=O)N[C@@H](Cc1ccccc1)C(=O)N[C@@H](CCCNC(=N)N)C(=O)N[C@@H](CCCNC(=N)N)C(N)=O [SFR2] (H-SYWVRASGGGFFFLSRIFRR-NH2) | >64 | >128 μM | >64 | 32 (≈ 77.1 µg/mL) | 64 (≈ 154 µg/mL) | 4 (≈ 9.64 µg/mL) | 1 (≈ 2.41 µg/mL) | >64 | >64 |  | 
CC[C@H](C)[C@H](NC(=O)[C@H](CCCNC(=N)N)NC(=O)[C@H](CO)NC(=O)[C@H](CC(C)C)NC(=O)[C@H](Cc1ccccc1)NC(=O)[C@H](Cc1ccccc1)NC(=O)[C@H](Cc1ccccc1)NC(=O)CNC(=O)CNC(=O)CNC(=O)[C@H](CO)NC(=O)[C@H](C)NC(=O)[C@H](CCCNC(=N)N)NC(=O)[C@@H](NC(=O)[C@H](Cc1c[nH]c2ccccc12)NC(=O)[C@H](Cc1ccc(O)cc1)NC(=O)[C@@H](N)CO)C(C)C)C(=O)N[C@@H](Cc1ccccc1)C(=O)N[C@@H](CCCNC(=N)N)C(=O)N[C@@H](CCCNC(=N)N)C(=O)N[C@@H](CCCNC(=N)N)C(N)=O [SFR3] (H-SYWVRASGGGFFFLSRIFRRR-NH2) | >64 | >128 μM | >64 | 32 (≈ 82.1 µg/mL) | >64 | 16 (≈ 41 µg/mL) | 4 (≈ 10.3 µg/mL) | >64 | >64 |  | 
CC[C@H](C)[C@H](NC(=O)[C@H](CCCNC(=N)N)NC(=O)[C@H](CO)NC(=O)[C@H](CC(C)C)NC(=O)[C@H](Cc1ccccc1)NC(=O)[C@H](Cc1ccccc1)NC(=O)[C@H](Cc1ccccc1)NC(=O)CNC(=O)CNC(=O)CNC(=O)[C@H](CO)NC(=O)[C@H](C)NC(=O)[C@H](CCCNC(=N)N)NC(=O)[C@@H](NC(=O)[C@H](Cc1c[nH]c2ccccc12)NC(=O)[C@H](Cc1ccc(O)cc1)NC(=O)[C@@H](N)CO)C(C)C)C(=O)N[C@@H](Cc1ccccc1)C(=O)N[C@@H](CCCCN)C(=O)N[C@@H](CCCCN)C(=O)N[C@@H](CCCCN)C(N)=O [SFK3] (H-SYWVRASGGGFFFLSRIFKKK-NH2) | >64 | >128 μM | >64 | 16 (≈ 39.7 µg/mL) | 16 (≈ 39.7 µg/mL) | 2 (≈ 4.96 µg/mL) | 1 (≈ 2.48 µg/mL) | >64 | >64 |  | 
O=C(O)c1cn(C2CC2)c2cc(N3CCNCC3)c(F)cc2c1=O [ciprofloxacin] |  |  |  |  |  |  |  |  |  | 16 | 2560
CC[C@H](C)[C@H](NC(=O)[C@H](CCCNC(=N)N)NC(=O)[C@H](CO)NC(=O)[C@H](CC(C)C)NC(=O)[C@H](Cc1ccccc1)NC(=O)[C@H](Cc1ccccc1)NC(=O)[C@H](Cc1ccccc1)NC(=O)CNC(=O)CNC(=O)CNC(=O)[C@H](CO)NC(=O)[C@H](C)NC(=O)[C@H](CCCNC(=N)N)NC(=O)[C@@H](NC(=O)[C@H](Cc1c[nH]c2ccccc12)NC(=O)[C@H](Cc1ccc(O)cc1)NC(=O)[C@@H](N)CO)C(C)C)C(=O)N[C@@H](Cc1ccccc1)C(=O)N[C@@H](CCCNC(=N)N)C(N)=O [SFR] (H-SYWVRASGGGFFFLSRIFR-NH2) | >64 | >128 μM | >64 | 32 (≈ 72.1 µg/mL) | 32 (≈ 72.1 µg/mL) | 2 (≈ 4.51 µg/mL) | 2 (≈ 4.51 µg/mL) | >64 | >64 |  | 

From article PMC11211671, “Phage‐displayed heptapeptide sequence conjugation significantly improves the specific targeting ability of antimicrobial peptides against Staphylococcus aureus” (mLife, 2024)
